According to publication PMC7349888, “Synthesis and Evaluation of Dodecaboranethiol Containing Kojic Acid (KA-BSH) as a Novel Agent for Boron Neutron Capture Therapy” (Cells, 2020):

Experiments:
Type in all cases: cell-based
C6 rat glioma cells = assay: In vitro boron uptake in C6 cells; details: Figure S1
Procedure: (§1) For the in vitro ^10B uptake study, B16 mouse melanoma cells, C6 rat glioma cells, and F98 rat glioma cells were used. B16 and C6 cells were used for in vitro testing at Osaka Prefecture University. Based on results from initial in vitro screening, the in vitro ^10B uptake study using F98 glioma cells were performed at Osaka Medical College. Four hundred thousand cells were seeded in a tissue culture dish (100 × 20 mm; Becton Dickinson, Franklin Lakes, NJ, USA) with DMEM supplemented with 10% FBS and 10% penicillin and streptomycin at 37 °C in a 5% CO2 atmosphere. After incubation for 4 days at 37 °C, the medium was removed, and DMEM with 10% FBS containing 1 mM KA-BSH, BSH, or BPA was added to each dish. The cells were incubated for an additional 24 h at 37 °C. The medium was then removed, and the cells were washed twice with 4 °C phosphate-buffered saline (PBS) and detached with trypsin–ethylenediamine tetraacetic acid solution. PBS was then added, and cells were digested overnight with 1 N nitric acid solution (Wako Pure Chemical Industries, Osaka, Japan), and ^10B uptake was determined by inductively coupled plasma atomic emission spectrometry (ICP-AES) using an iCAP6000 emission spectrometer (Hitachi High-Technologies, Tokyo, Japan).

F98 rat glioma cells [1] = assay: In vitro 10B uptake in F98 cells (ICP-AES); details: 24 h incubation in DMEM with 1 mM boron compound
Procedure: as §1

F98 rat glioma cells [2] = assay: Cell viability assay (WST-8) in F98 cells; details: WST-8 test, read-out: IC50 (cytotoxicity)
Procedure: The cytotoxicity of KA-BSH was assayed using the water soluble tetrazolium (WST)-8 assay with a cell-counting kit (Wako Pure Chemicals, Osaka, Japan) following a modified version of the manufacturer-provided protocols. Relative cell survival was calculated according to Equation (1):(1) Relative cell survival (%)=absorbance value of compound treated well/absorbance value of untreated well×100

B16 mouse melanoma cells = assay: In vitro boron uptake in B16 cells; details: Figure S1
Procedure: as §1

In the case of “S-(2-(5-hydroxy-4-oxo-4H-pyran-2-yl) methyl) Thioundecahydro-Closo- Dodecaborate (2-) Disodium Salt [KA-BSH]”, the “boron uptake into cancer cells” value (C6 rat glioma cells) is reported as “taken up into cancer cells”, the “10B concentration of F98 rat glioma cells” value (F98 rat glioma cells [1]) is reported as 0.821 ± 0.047 µg 10B/10^7 cells and the IC50 (F98 rat glioma cells [2]) is reported as 10.4 mM. The “boron uptake into cancer cells” value (B16 mouse melanoma cells) was “taken up into cancer cells”.
